Data from BindingDB's records for doi:10.1021/jm00101a006 (University of Illinois, 1992).

Tests used:
Serine protease 1 = biological target: T1, Serine protease 1 (Bos taurus, UniProt P00760); test: Compound was tested for the rate constant of deacylation against the enzyme trypsin
T1 sequence (P00760 whole entry): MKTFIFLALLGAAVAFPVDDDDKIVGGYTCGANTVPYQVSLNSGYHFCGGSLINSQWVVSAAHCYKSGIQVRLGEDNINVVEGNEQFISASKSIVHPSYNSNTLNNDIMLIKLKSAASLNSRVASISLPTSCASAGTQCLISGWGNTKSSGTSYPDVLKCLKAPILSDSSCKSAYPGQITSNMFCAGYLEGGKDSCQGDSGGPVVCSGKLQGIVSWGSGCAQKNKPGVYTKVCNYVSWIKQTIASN

[1] = biological target: T2, Urokinase-type plasminogen activator (Homo sapiens, UniProt P00749); test: Compound was tested for the rate constant of deacylation against Urokinase-type plasminogen activator
[2] = biological target: T2, Urokinase-type plasminogen activator; test: Compound was tested for the rate constant of deacylation against the enzyme Urokinase-type plasminogen activator; settings: read-out: koff (s-1)
[3] = biological target: T2, Urokinase-type plasminogen activator; test: Compound was tested for the rate constant of deacylation against Urokinase-type plasminogen activator

koff (Serine protease 1) [s⁻¹] | koff [1] [s⁻¹] | koff [2] [s⁻¹] | koff [3] [s⁻¹] | Structure (SMILES)
0.00033 |  |  |  | NC(N)=Nc1ccc(C2CC(=O)O/C(=C\I)C2)cc1 (stereo not given)
 | 1.3e-05 | 1.3e-05 |  | NC(N)=Nc1ccc(C2C/C(=C/I)OC(=O)C2NC(=O)c2ccccc2)cc1 (stereo not given)
0.00025 |  |  | 3.3e-05 | C=C1CC(c2ccc(N=C(N)N)cc2)C(NC(=O)c2ccccc2)C(=O)O1 (stereo not given)
